Results as given in ChEMBL document CHEMBL3785051, “Recent progress on third generation covalent EGFR inhibitors” (Bioorg Med Chem Lett, 2016).

Experiments:
[1] = target: Epidermal growth factor receptor (Homo sapiens, UniProt P00533, EX19DEL); experiment: Inhibition of EGFR Del ex19 mutant phosphorylation in human PC9 cells preincubated for 2 hrs by ELISA; assay type: cell-based, PC-9
[2] = target: Epidermal growth factor receptor (Homo sapiens, UniProt P00533); experiment: Inhibition of wild type EGFR phosphorylation in human LoVo cells preincubated for 2 hrs followed by EGF stimulation measured after 30 mins by ELISA; assay type: cell-based
Chain of Epidermal growth factor receptor (Homo sapiens, UniProt P00533) (P00533 whole entry): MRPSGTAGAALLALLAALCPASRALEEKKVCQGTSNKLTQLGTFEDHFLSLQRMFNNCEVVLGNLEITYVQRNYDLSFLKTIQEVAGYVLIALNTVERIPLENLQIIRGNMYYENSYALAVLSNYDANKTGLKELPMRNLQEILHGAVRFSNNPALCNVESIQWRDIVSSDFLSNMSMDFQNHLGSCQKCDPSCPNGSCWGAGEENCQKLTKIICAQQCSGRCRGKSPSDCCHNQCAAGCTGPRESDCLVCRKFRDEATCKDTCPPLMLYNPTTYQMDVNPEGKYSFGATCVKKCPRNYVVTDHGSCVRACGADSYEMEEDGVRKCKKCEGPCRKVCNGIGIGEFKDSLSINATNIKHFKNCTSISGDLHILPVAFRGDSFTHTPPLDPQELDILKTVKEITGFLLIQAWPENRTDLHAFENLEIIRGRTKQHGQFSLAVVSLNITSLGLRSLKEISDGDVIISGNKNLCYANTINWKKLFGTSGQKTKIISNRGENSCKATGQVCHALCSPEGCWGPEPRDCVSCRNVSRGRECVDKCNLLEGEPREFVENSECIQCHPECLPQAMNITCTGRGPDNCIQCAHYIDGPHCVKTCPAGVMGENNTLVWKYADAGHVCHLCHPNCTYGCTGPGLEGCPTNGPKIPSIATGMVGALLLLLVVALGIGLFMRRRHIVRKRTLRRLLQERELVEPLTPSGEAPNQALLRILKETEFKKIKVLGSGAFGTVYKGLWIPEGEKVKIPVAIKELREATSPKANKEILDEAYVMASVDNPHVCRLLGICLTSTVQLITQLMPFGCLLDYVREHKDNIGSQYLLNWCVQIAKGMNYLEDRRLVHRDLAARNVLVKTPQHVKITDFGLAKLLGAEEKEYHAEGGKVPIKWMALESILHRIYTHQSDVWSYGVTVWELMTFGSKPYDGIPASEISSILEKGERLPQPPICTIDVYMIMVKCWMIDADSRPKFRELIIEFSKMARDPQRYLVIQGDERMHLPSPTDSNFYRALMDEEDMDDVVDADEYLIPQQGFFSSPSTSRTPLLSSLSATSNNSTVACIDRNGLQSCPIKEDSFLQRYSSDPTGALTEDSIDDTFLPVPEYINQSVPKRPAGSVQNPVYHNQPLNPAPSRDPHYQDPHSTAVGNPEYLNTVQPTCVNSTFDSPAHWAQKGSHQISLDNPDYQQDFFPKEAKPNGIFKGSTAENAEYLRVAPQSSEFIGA

[3] = target: Epidermal growth factor receptor (Homo sapiens, UniProt P00533, L858R/T790M); experiment: Inhibition of EGFR T790M/L858R double mutant phosphorylation in human H1975 cells preincubated for 2 hrs by ELISA; assay type: cell-based
Chain of Epidermal growth factor receptor (Homo sapiens, UniProt P00533, L858R/T790M) (P00533 25-1210 T790M/L858R limits assumed): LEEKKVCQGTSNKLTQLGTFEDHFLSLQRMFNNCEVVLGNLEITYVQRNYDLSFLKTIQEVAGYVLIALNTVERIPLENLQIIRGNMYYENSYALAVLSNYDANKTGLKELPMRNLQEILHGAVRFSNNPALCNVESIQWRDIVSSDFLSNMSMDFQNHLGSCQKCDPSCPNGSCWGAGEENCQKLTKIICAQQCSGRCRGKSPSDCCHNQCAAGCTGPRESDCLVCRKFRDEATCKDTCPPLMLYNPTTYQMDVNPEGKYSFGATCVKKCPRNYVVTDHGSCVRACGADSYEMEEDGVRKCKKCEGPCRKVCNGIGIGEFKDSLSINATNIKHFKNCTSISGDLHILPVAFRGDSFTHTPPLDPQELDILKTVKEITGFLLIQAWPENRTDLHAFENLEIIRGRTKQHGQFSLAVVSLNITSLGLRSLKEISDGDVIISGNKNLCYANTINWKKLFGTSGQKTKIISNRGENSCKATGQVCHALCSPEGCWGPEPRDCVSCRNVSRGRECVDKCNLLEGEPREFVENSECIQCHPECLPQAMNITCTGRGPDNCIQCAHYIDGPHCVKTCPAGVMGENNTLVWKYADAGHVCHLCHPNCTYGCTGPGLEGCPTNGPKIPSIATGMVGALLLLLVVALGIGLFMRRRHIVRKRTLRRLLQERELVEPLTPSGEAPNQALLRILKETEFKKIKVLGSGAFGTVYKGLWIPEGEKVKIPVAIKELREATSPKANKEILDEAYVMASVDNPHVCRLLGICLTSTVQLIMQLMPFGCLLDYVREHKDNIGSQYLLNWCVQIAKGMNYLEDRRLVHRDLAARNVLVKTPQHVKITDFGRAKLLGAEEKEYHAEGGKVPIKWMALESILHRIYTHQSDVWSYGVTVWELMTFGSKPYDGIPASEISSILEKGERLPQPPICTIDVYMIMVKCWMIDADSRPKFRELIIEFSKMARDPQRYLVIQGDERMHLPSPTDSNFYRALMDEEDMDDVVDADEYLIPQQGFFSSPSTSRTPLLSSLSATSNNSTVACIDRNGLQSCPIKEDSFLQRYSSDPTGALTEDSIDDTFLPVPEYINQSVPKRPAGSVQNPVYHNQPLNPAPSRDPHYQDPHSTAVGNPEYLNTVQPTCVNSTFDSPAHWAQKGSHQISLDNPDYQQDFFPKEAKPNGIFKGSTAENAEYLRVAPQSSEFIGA

[4] = Clearance in patient with EGFR TKI-resistant NSCLC at 20 to 240 mg, po qd; assay type: ADME, organism-based; conditions: human, in vivo
[5] = Half life in mouse at 25 mg/kg, po; assay type: ADME, organism-based; conditions: in vivo
[6] = Apparent half life in patient with EGFR TKI-resistant NSCLC at 20 to 240 mg, po qd; assay type: ADME, organism-based; conditions: human, in vivo, read-out: t1/2(app) (converted)
[7] = Antiproliferative activity against EGFR Del ex19/T790M mutant expressing human HCC827EPR cells assessed as cell viability after 72 hrs by CellTiterGlo analysis; assay type: functional
A-431 [8] = experiment: Antiproliferative activity against wild type EGFR expressing human A431 cells assessed as cell viability after 72 hrs by CellTiterGlo analysis; assay type: functional; conditions: A-431, 72 h
NCI-H1975 = experiment: Antiproliferative activity against EGFR L858R / T790M double mutant expressing human NCI-H1975 cells assessed as cell viability after 72 hrs by CellTiterGlo analysis; assay type: functional; conditions: NCI-H1975, 72 h
[9] = Antiproliferative activity against EGFR Del ex19 mutant expressing human PC9 cells assessed as cell viability after 72 hrs by CellTiterGlo analysis; assay type: functional; conditions: PC-9, 72 h
A-431 [10] = experiment: Antitumor activity against human A431 cells xenografted in NCR Nu/Nu mouse assessed as tumor growth inhibition at 50 mg/kg, ip administered as bid; assay type: functional; conditions: A-431, ip, read-out: TGI
[11] = Oral bioavailability in Nu/Nu mouse at 20 mg/ kg; assay type: ADME, organism-based; conditions: in vivo
[12] = Antiproliferative activity against EGFR Del 19 mutant expressing human HCC827 cells assessed as cell viability after 72 hrs by CellTiterGlo analysis; assay type: functional; conditions: HCC827, 72 h

Chain of Epidermal growth factor receptor (Homo sapiens, UniProt P00533, EX19DEL) (P00533 whole entry, looked up, stated change not applied): as the sequence (P00533 whole entry) above

SMILES: C=CC(=O)Nc1cc(Nc2nccc(-c3c[nH]c4ccccc34)n2)c(OC)cc1N(C)CCN(C)C
- IC50 [1]: 2 nM
- IC50 [2]: 33 nM
- IC50 [3]: 2 nM

SMILES: C=CC(=O)Nc1cc(Nc2nccc(-c3cn(C)c4ccccc34)n2)c(OC)cc1N(C)CCN(C)C [OSIMERTINIB]
- CL/F [4]: 237 mL/min
- half-life [5]: 3 h
- half-life [6]: 55 h

SMILES: C=CC(=O)Nc1cc(Nc2nccc(-c3cn(C)c4ccccc34)n2)c(OC)cc1N(C)CCNC
- IC50 [1]: 26 nM
- IC50 [2]: 786 nM
- IC50 [3]: 45 nM

SMILES: C=CC(=O)Nc1cccc(Nc2nc(Nc3ccc(N4CCN(C(C)=O)CC4)cc3OC)ncc2C(F)(F)F)c1 [ROCILETINIB]
- GI50 [7]: 7 nM
- GI50 (A-431 [8]): 547 nM
- GI50 (NCI-H1975): 7 nM
- GI50 [9]: 7 nM
- inhibition in vivo at 50 mg/kg (A-431 [10]): 36%
- bioavailability [11]: 65%
- GI50 [12]: 7 nM
